Experimental findings from patent US12551532B2, “Long-acting amylin receptor agonists and uses thereof” (Eli Lilly and Company, priority 2021, dated 2026) are described below.

Starred links: 1 amine or outer side, 2 acyl side, 3 side chain; linkers in the order of their positions; H or OH if unused. Positions of bridges follow the written chain, without caps; N, C: chain ends. Non-standard residues stand in square brackets, D forms with d. Residues, ends and D or L forms follow the SMILES beside them. Groups on a side chain read outwards from the residue. *: point of attachment. C20 diacid = O=C(O)CCCCCCCCCCCCCCCCCCC(=O)*; γGlu = O=C(O)[C@H](CCC(=O)[*:2])N[*:1]; αMeF = C[C@](N)(Cc1ccccc1)C(=O)O; NMeD = CN[C@@H](CC(=O)O)C(=O)O; NMeN = CN[C@@H](CC(N)=O)C(=O)O; Orn = NCCC[C@H](N)C(=O)O; AEEA = NCCOCCOCC(=O)O; CH2 = C([*:1])[*:2]

The target in one experiment is T1, hAMY1R (Homo sapiens, UniProt O60894+P30988).
T1 construct: expressed in transfected cells
Briefly: hAMY1R cAMP functional activity (HTRF). The experiment is classed as cell-based. Conditions: ±SE; UMUC3 cells overexpressing hAMY1R; relative EC50. On the procedure:
(§1) The AMY1 and CT receptors are GPCRs that are functionally coupled to Gas proteins. […] In vitro activity of peptides is measured by the amount of cAMP formed in human AMY1R and CTR overexpressed cells.
Human AMY1R stable cell lines are generated by further transfecting human RAMP1-pCMVpuroPB (T14213) into UMUC3 hCTR clone cells. After selection, the mRNA levels human RAMP1 from different clones are measured to confirm the expression of human AMY1R.
(§2) hAMY1R cells are cultured in MEM 1× (Corning) supplemented with 10% FBS, 1% antibiotic/antimycotic solution, 1 mM sodium pyruvate, 1×MEM NEAA, 1× GlutaMAX-I, 200 μg/mL hygromycin B, and 0.4 μg/mL puromycin. The hCTR cells are cultured in the same medium lacking the puromycin. Cultured cells are grown to 70% confluency and then incubated overnight with fresh medium.
(§3) Peptides diluted in DMSO are added (200 nL/well) in a 1:3 dilution series using ECHO acoustic liquid handler (Beckman). Cultured cells are detached with TrypLE Express (Gibco), resuspended in assay buffer, and 10 μL containing 1200 cells/well (hCTR) or 1500 cells/well (hAMY1R) are dispensed into each well. The plates are incubated at room temperature for 1 hour.
(§4) The amount of intracellular cAMP is quantitated using HTRF technology (Homogeneous Time Resolved Fluorescence; Cisbio) as per vendor instructions. Briefly, 10 μL cAMP-d2 conjugate and 10 μL anti-cAMP-cryptate conjugate in lysis buffer are incubated with the treated cells at room temperature for 60 min. […] The raw data are converted to cAMP amount (pmol/well) using a cAMP standard curve generated for each experiment.
In general terms: Time-resolved FRET reads energy transfer from a long-lived donor to a nearby acceptor.

A further experiment deals with T2, human CT receptors (Homo sapiens, UniProt P30988).
T2 construct: expressed in transfected cells
T2 sequence (P30988 25-474): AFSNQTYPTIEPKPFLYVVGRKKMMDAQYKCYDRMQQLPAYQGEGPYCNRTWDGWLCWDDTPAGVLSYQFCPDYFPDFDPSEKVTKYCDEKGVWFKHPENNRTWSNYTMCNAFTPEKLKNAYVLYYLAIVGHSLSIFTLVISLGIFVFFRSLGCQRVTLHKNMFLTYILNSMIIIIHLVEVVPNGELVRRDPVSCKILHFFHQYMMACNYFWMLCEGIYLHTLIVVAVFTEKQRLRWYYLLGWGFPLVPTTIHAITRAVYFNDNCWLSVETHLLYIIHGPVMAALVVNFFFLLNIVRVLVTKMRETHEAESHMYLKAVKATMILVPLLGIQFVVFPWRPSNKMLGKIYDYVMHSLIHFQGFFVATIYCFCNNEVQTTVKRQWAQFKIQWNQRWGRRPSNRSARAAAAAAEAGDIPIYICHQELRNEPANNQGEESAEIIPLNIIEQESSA
Kind of experiment: hCTR cAMP functional activity (HTRF). Type of experiment: cell-based. The following applies: ±SE; UMUC3 cells overexpressing hCTR; relative EC50. As to the method:
as §1
Human CT receptors are stably expressed in human urinary bladder cells (UM-UC-3, or UMUC3) under control of a pcDNA expression vector. […] After 20 days under selection, the mRNA levels from different clones are measured to confirm the expression of hCTR. To determine the function of over-expressed hCTR cells, the intracellular cAMP levels in response to salmon calcitonin are measured and compared to the expression of hCTR mRNA in each clone.
as §2, §3, §4

T1 sequence (O60894 27-148 partner, one chain of several): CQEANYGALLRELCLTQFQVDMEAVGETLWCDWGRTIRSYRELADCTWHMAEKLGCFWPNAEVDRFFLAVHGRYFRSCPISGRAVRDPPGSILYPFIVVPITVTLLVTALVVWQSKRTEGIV

For the compound `CC(C)C[C@H](NC(=O)[C@H](CCCN)NC(=O)CNC(=O)[C@@H](NC(=O)[C@H](C)NC(=O)[C@@H]1CSCSC[C@H](NC(=O)CC[C@H](N)C(=O)O)C(=O)N[C@@H](CC(N)=O)C(=O)N[C@@H]([C@@H](C)O)C(=O)N[C@@H](C)C(=O)N[C@@H]([C@@H](C)O)C(=O)N1)[C@@H](C)O)C(=O)N[C@@H](C)C(=O)N[C@@H](CCC(=O)O)C(=O)N[C@@](C)(Cc1ccccc1)C(=O)N[C@@H](CC(C)C)C(=O)N[C@H](C(=O)N[C@@H](CCCNC(=N)N)C(=O)N[C@@H](CO)C(=O)N[C@@H](CO)C(=O)N[C@@H](CC(N)=O)C(=O)N(C)[C@@H](CC(N)=O)C(=O)N[C@@H](Cc1ccccc1)C(=O)NCC(=O)N1CCC[C@H]1C(=O)N[C@@H](CCCCN)C(=O)N[C@@H](CC(C)C)C(=O)N1CCC[C@H]1C(=O)N1CCC[C@H]1C(=O)N[C@H](C(=O)N[C@@H](CCC(=O)O)C(=O)N[C@H](C(=O)NCC(=O)N[C@@H](CO)C(=O)N[C@@H](CC(N)=O)C(=O)N[C@H](C(=O)N[C@@H](Cc1ccc(O)cc1)C(N)=O)[C@@H](C)O)C(C)C)[C@@H](C)O)C(C)C` [Compound I, γE-CNTATCATG-Orn-LAE-αMeF-LVRSSN-NMeN-FGPKLPPTEVGSNTY-NH2] (γGlu-CNTATCATG[Orn]LAE[αMeF]LVRSSN[NMeN]FGPKLPPTEVGSNTY-NH2; linker 1-6 via CH2), the EC50 at hAMY1R is 0.133 ± 0.012 nM; on human CT receptors, 18 ± 1.08 nM.

On to `CC(C)C[C@H](NC(=O)[C@H](CCCCN)NC(=O)CNC(=O)[C@@H](NC(=O)[C@H](C)NC(=O)[C@@H]1CSCSC[C@H](NC(=O)CC[C@H](N)C(=O)O)C(=O)N[C@@H](CC(N)=O)C(=O)N[C@@H]([C@@H](C)O)C(=O)N[C@@H](C)C(=O)N[C@@H]([C@@H](C)O)C(=O)N1)[C@@H](C)O)C(=O)N[C@@H](C)C(=O)N[C@@H](CCC(=O)O)C(=O)N[C@@H](Cc1ccccc1)C(=O)N[C@@H](CC(C)C)C(=O)N[C@H](C(=O)N[C@@H](CCCNC(=N)N)C(=O)N[C@@H](CO)C(=O)N[C@@H](CO)C(=O)N[C@@H](CC(N)=O)C(=O)N[C@@H](CC(N)=O)C(=O)N[C@@H](Cc1ccccc1)C(=O)NCC(=O)N1CCC[C@H]1C(=O)N[C@@H](CCCCNC(=O)COCCOCCNC(=O)COCCOCCNC(=O)CC[C@H](NC(=O)CCCCCCCCCCCCCCCCCCC(=O)O)C(=O)O)C(=O)N[C@@H](CC(C)C)C(=O)N1CCC[C@H]1C(=O)N1CCC[C@H]1C(=O)N[C@H](C(=O)N[C@@H](CCC(=O)O)C(=O)N[C@H](C(=O)NCC(=O)N[C@@H](CO)C(=O)N[C@@H](CC(N)=O)C(=O)N[C@H](C(=O)N[C@@H](Cc1ccc(O)cc1)C(N)=O)[C@@H](C)O)C(C)C)[C@@H](C)O)C(C)C` [Compound IX] (γGlu-CNTATCATGKLAEFLVRSSNNFGPK([AEEA-AEEA-γGlu-C20 diacid])LPPTEVGSNTY-NH2; linker 1-6 via CH2), for which the EC50 on hAMY1R came out at 0.132 ± 0.02 nM; at human CT receptors, 18.9 ± 3.83 nM.

Turning to `CC(C)C[C@H](NC(=O)[C@H](CCCN)NC(=O)CNC(=O)[C@@H](NC(=O)[C@H](C)NC(=O)[C@@H]1CSCSC[C@H](NC(=O)CC[C@H](N)C(=O)O)C(=O)NCC(=O)N[C@@H]([C@@H](C)O)C(=O)N[C@@H](C)C(=O)N[C@@H]([C@@H](C)O)C(=O)N1)[C@@H](C)O)C(=O)N[C@@H](C)C(=O)N[C@@H](CCC(=O)O)C(=O)N[C@@H](Cc1ccccc1)C(=O)N[C@@H](CC(C)C)C(=O)N[C@H](C(=O)N[C@@H](CCCNC(=N)N)C(=O)N[C@@H](CO)C(=O)N[C@@H](CO)C(=O)N[C@@H](CC(N)=O)C(=O)N[C@@H](CC(N)=O)C(=O)N[C@@H](Cc1ccccc1)C(=O)NCC(=O)N1CCC[C@H]1C(=O)N[C@@H](CCCCNC(=O)CC[C@H](NC(=O)CC[C@H](NC(=O)CCCCCCCCCCCCCCCCCCC(=O)O)C(=O)O)C(=O)O)C(=O)N[C@@H](CC(C)C)C(=O)N1CCC[C@H]1C(=O)N1CCC[C@H]1C(=O)N[C@H](C(=O)N[C@@H](CCC(=O)O)C(=O)N[C@H](C(=O)NCC(=O)N[C@@H](CO)C(=O)N[C@@H](CC(N)=O)C(=O)N[C@H](C(=O)N[C@@H](Cc1ccc(O)cc1)C(N)=O)[C@@H](C)O)C(C)C)[C@@H](C)O)C(C)C` [Compound XIII] (γGlu-CGTATCATG[Orn]LAEFLVRSSNNFGPK([γGlu-γGlu-C20 diacid])LPPTEVGSNTY-NH2; linker 1-6 via CH2), the EC50 on hAMY1R worked out at 0.078 ± 0.014 nM; at human CT receptors, 9.49 ± 1.54 nM.

On to `CC(C)C[C@H](NC(=O)[C@H](CCCN)NC(=O)[C@H](CCC(N)=O)NC(=O)[C@@H](NC(=O)[C@H](C)NC(=O)[C@@H]1CSCSC[C@H](NC(=O)CC[C@H](N)C(=O)O)C(=O)N[C@@H](CC(N)=O)C(=O)N[C@@H]([C@@H](C)O)C(=O)N[C@@H](C)C(=O)N[C@@H]([C@@H](C)O)C(=O)N1)[C@@H](C)O)C(=O)N[C@@H](C)C(=O)N[C@@H](CCC(=O)O)C(=O)N[C@@H](Cc1ccccc1)C(=O)N[C@@H](CC(C)C)C(=O)N[C@H](C(=O)N[C@@H](CCCNC(=N)N)C(=O)N[C@@H](CO)C(=O)N[C@@H](CO)C(=O)N[C@@H](CC(N)=O)C(=O)N[C@@H](CC(N)=O)C(=O)N[C@@H](Cc1ccccc1)C(=O)NCC(=O)N1CCC[C@H]1C(=O)N[C@@H](CCCCNC(=O)COCCOCCNC(=O)COCCOCCNC(=O)CC[C@H](NC(=O)CCCCCCCCCCCCCCCCCCC(=O)O)C(=O)O)C(=O)N[C@@H](CC(C)C)C(=O)N1CCC[C@H]1C(=O)N1CCC[C@H]1C(=O)N[C@H](C(=O)N[C@@H](CCC(=O)O)C(=O)N[C@H](C(=O)NCC(=O)N[C@@H](CO)C(=O)N[C@@H](CC(N)=O)C(=O)N[C@H](C(=O)N[C@@H](Cc1ccc(O)cc1)C(N)=O)[C@@H](C)O)C(C)C)[C@@H](C)O)C(C)C` [Compound XII] (γGlu-CNTATCATQ[Orn]LAEFLVRSSNNFGPK([AEEA-AEEA-γGlu-C20 diacid])LPPTEVGSNTY-NH2; linker 1-6 via CH2), for which the EC50 at hAMY1R amounted to 0.113 ± 0.034 nM; on human CT receptors, 25.9 ± 7.62 nM.

As for `CC(C)C[C@H](NC(=O)[C@H](CCCN)NC(=O)CNC(=O)[C@@H](NC(=O)[C@H](C)NC(=O)[C@@H]1CSCSC[C@H](NC(=O)CC[C@H](N)C(=O)O)C(=O)N[C@@H](CC(N)=O)C(=O)N[C@@H]([C@@H](C)O)C(=O)N[C@@H](C)C(=O)N[C@@H]([C@@H](C)O)C(=O)N1)[C@@H](C)O)C(=O)N[C@@H](C)C(=O)N[C@@H](CCC(=O)O)C(=O)N[C@@](C)(Cc1ccccc1)C(=O)N[C@@H](CC(C)C)C(=O)N[C@H](C(=O)N[C@@H](CCCNC(=N)N)C(=O)N[C@@H](CO)C(=O)N[C@@H](CO)C(=O)N[C@@H](CC(N)=O)C(=O)N(C)[C@@H](CC(=O)O)C(=O)N[C@@H](Cc1ccccc1)C(=O)NCC(=O)N1CCC[C@H]1C(=O)N[C@@H](CCCCN)C(=O)N[C@@H](CC(C)C)C(=O)N1CCC[C@H]1C(=O)N1CCC[C@H]1C(=O)N[C@H](C(=O)N[C@@H](CCC(=O)O)C(=O)N[C@H](C(=O)NCC(=O)N[C@@H](CO)C(=O)N[C@@H](CC(N)=O)C(=O)N[C@H](C(=O)N[C@@H](Cc1ccc(O)cc1)C(N)=O)[C@@H](C)O)C(C)C)[C@@H](C)O)C(C)C` [Compound III, γE-CNTATCATG-Orn-LAE-αMeF-LVRSSN-NMeD-FGPKLPPTEVGSNTY-NH2] (γGlu-CNTATCATG[Orn]LAE[αMeF]LVRSSN[NMeD]FGPKLPPTEVGSNTY-NH2; linker 1-6 via CH2), the EC50 was determined as 0.156 ± 0.027 nM at hAMY1R and 16.3 ± 3.03 nM on human CT receptors.

By EC50 is commonly meant the concentration that produces a half-maximal response.
